Assay results from the supplement of paper PMC10307832.

What was measured:
Experiment in all cases: relative viability (nuclei count vs DMSO), 5 days (fraction); higher = more cells survive
[1] = compound: CC1=CC(=NN1)NC2=CC(=NC(=N2)/C=C/C3=CC=CC=C3)N4CCN(CC4)C + CC(=O)c1c(C)c2cnc(Nc3ccc(N4CCNCC4)cn3)nc2n(C2CCCC2)c1=O [Palbociclib] (partner 0.5 µM)
Method in brief: (§1)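 Relative viability equals treated-well nuclei counts divided by vehicle-well nuclei counts. Counts came from 4× images of lung cancer cell lines grown in 1536-well plates for 5 days after pin-tool dosing on the day after seeding. Dosing used one drug alone or a fixed anchor-drug dose plus five library-drug doses (not always all listed) in √10 steps, and values are medians of duplicate plates.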

Obatoclax + Olaparib = compound: COC1=CC(c2cc3ccccc3[nH]2)=N/C1=C\c1[nH]c(C)cc1C [Obatoclax] + O=C(c1cc(Cc2n[nH]c(=O)c3ccccc23)ccc1F)N1CCN(C(=O)C2CC2)CC1 [Olaparib] (partner 8 µM)
Method in brief: as §1

Obatoclax + Phenformin = compound: COC1=CC(c2cc3ccccc3[nH]2)=N/C1=C\c1[nH]c(C)cc1C [Obatoclax] + N=C(N)NC(=N)NCCc1ccccc1 [Phenformin] (partner 250 µM)
Method in brief: as §1

[2] = compound: CC1=CC(=NN1)NC2=CC(=NC(=N2)/C=C/C3=CC=CC=C3)N4CCN(CC4)C + CS(=O)(=O)CCNCc1ccc(-c2ccc3ncnc(Nc4ccc(OCc5cccc(F)c5)c(Cl)c4)c3c2)o1 [Lapatinib] (partner 2 µM)
Method in brief: as §1

Cell Line | relative viability ([1]; first compound 0.08 µM) | relative viability ([1]; first compound 0.253 µM) | relative viability ([1]; first compound 0.8 µM) | relative viability ([1]; first compound 2.53 µM) | relative viability ([1]; first compound 8 µM) | relative viability (Obatoclax + Olaparib; first compound 0.01 µM) | relative viability (Obatoclax + Olaparib; first compound 0.03162 µM) | relative viability (Obatoclax + Olaparib; first compound 0.1 µM) | relative viability (Obatoclax + Olaparib; first compound 0.3162 µM) | relative viability (Obatoclax + Olaparib; first compound 1 µM) | relative viability (Obatoclax + Phenformin; first compound 0.01 µM) | relative viability (Obatoclax + Phenformin; first compound 0.03162 µM) | relative viability (Obatoclax + Phenformin; first compound 0.1 µM) | relative viability (Obatoclax + Phenformin; first compound 0.3162 µM) | relative viability (Obatoclax + Phenformin; first compound 1 µM) | relative viability ([2]; first compound 0.08 µM) | relative viability ([2]; first compound 0.253 µM) | relative viability ([2]; first compound 0.8 µM) | relative viability ([2]; first compound 2.53 µM) | relative viability ([2]; first compound 8 µM)
201T | 0.345 | 0.358 | 0.359 | 0.33 | 0.197 | 0.873 | 0.782 | 0.838 | 0.823 | 0.831 | 0.434 | 0.457 | 0.43 | 0.399 | 0.463 | 1.02 | 1.07 | 1.04 | 0.946 | 0.915
A549 | – | – | – | – | – | 0.326 | 0.367 | 0.0867 | 0.361 | 0.342 | 0.131 | 0.248 | 0.035 | 0.222 | 0.0807 | 0.924 | 0.954 | 0.772 | 0.102 | 0.0367
A-427 | 0.58 | 0.518 | 0.51 | 0.454 | 0.201 | 0.82 | 0.706 | 0.559 | 0.775 | 0.416 | 0.339 | 0.342 | 0.32 | 0.287 | 0.165 | 1.22 | 1.05 | 0.957 | 0.542 | 0.513
ABC-1 | 0.668 | 0.633 | 0.934 | 0.636 | 0.227 | 1.08 | 0.95 | 0.776 | 0.799 | 0.566 | 0.226 | 0.215 | 0.291 | 0.22 | 0.297 | 0.957 | 1.15 | 1.23 | 1.13 | 0.453
BEN | 0.421 | 0.459 | 0.511 | 0.437 | 0.328 | 1.03 | 1.04 | 0.864 | 0.914 | 0.942 | 0.287 | 0.224 | – | 0.286 | 0.277 | 0.75 | 0.668 | 0.742 | 0.326 | 0.229
CAL-12T | 0.412 | 0.335 | 0.466 | 0.185 | 0.119 | 0.759 | 0.764 | 0.724 | 0.679 | 0.232 | 0.552 | 0.612 | 0.538 | 0.155 | 0.102 | 0.654 | 0.778 | 0.663 | 0.324 | 0.141
COR-L23 | 0.315 | 0.33 | 0.24 | 0.127 | 0.0777 | 0.37 | 0.352 | 0.354 | 0.248 | 0.156 | 0.443 | 0.479 | 0.425 | 0.328 | 0.216 | 0.98 | 1.51 | 1.1 | 0.22 | 0.0755
COR-L 105 | 0.432 | 0.381 | 0.406 | 0.275 | 0.323 | 0.727 | 0.76 | 0.737 | 0.672 | 0.457 | 0.4 | 0.53 | 0.637 | 0.333 | 0.266 | 0.335 | 0.341 | 0.338 | 0.23 | 0.223
Calu-6 | – | – | – | – | – | 0.538 | 0.565 | 0.611 | 0.534 | 0.239 | – | – | – | – | – | 0.93 | 0.966 | 0.793 | 0.195 | 0.137
ChaGo-K-1 | 0.756 | 0.952 | 0.933 | 0.378 | 0.17 | 0.4 | 0.439 | 0.391 | 0.382 | 0.41 | 0.511 | 0.506 | 0.444 | 0.462 | 0.527 | – | – | – | – | –
EBC-1 | – | – | – | – | – | 0.632 | 0.765 | 0.642 | 0.583 | 0.269 | – | – | – | – | – | 0.214 | 0.223 | 0.254 | 0.209 | 0.153
EKVX | 0.414 | 0.465 | 0.362 | 0.301 | 0.144 | 0.842 | – | 0.966 | 0.888 | 0.648 | 0.257 | 0.218 | 0.141 | 0.232 | 0.231 | 0.191 | 0.216 | 0.226 | 0.136 | 0.0912
EMC-BAC-2 | 0.519 | 0.543 | 0.504 | 0.454 | 0.273 | 0.491 | 0.514 | 0.418 | 0.478 | 0.43 | 0.478 | 0.526 | 0.398 | 0.466 | 0.371 | 0.905 | 0.923 | 0.811 | 0.689 | 0.136
EPLC-272H | 0.299 | 0.342 | 0.319 | 0.291 | 0.204 | 0.796 | 0.889 | 0.756 | 0.263 | 0.215 | 0.255 | 0.277 | 0.351 | 0.225 | 0.158 | 0.893 | 0.99 | 0.868 | 0.462 | 0.157
H3255 | 0.322 | 0.319 | 0.345 | 0.313 | 0.267 | 0.537 | 0.608 | 0.541 | 0.557 | 0.546 | 0.306 | 0.377 | 0.372 | 0.335 | 0.42 | 0.244 | 0.211 | 0.478 | 0.203 | 0.123
HARA | 0.296 | 0.31 | 0.266 | 0.174 | 0.103 | 0.639 | 0.962 | 1.03 | 0.99 | 0.89 | 0.427 | 0.432 | 0.463 | 0.455 | 0.357 | 0.776 | 0.874 | 0.611 | 0.163 | 0.158
HCC-15 | 0.743 | 0.771 | 0.716 | 0.347 | 0.114 | 0.734 | 0.769 | 0.694 | 0.763 | 0.704 | 0.486 | 0.432 | 0.348 | 0.438 | 0.327 | 0.867 | 0.856 | 0.835 | 0.319 | 0.167
